How the values were obtained:
[1] = tested on: rat Leydig tumor cell line R2C; assay: R2C proliferation assay for SF-1 antagonists (EdU incorporation); type: cell-based; conditions: R2C, read-out: R2C: EC50
Experimental: SF-1 regulates progenitor cell formation and survival in adult Leydig cells. Anti-proliferative effects of SF-1 antagonists using a SF-1+ rat Leydig tumor cell line, R2C, was investigated. Cell proliferation was measured by detecting DNA incorporation of EdU, a nucleoside analogue that can be fluorescently tagged after cell fixation.
Proliferation of the rat Leydig tumor cell line R2C (ATCC® CCL-97™) was assessed using 5-ethynyl-2′-deoxyuridine (EdU), a nucleoside analogue incorporated during DNA synthesis that can be fluorescently tagged after cell fixation. Cycloheximide, a protein synthesis inhibitor, was used as a positive control for the assay.
R2C cells are maintained according to a protocol provided by the American Type Culture Collection (ATCC). At the time of assay, R2C cells were diluted to 1.0 million cells/mL with culture medium (F12 medium supplemented with 2% FBS and 1% Penicillin-Streptomycin) and 50 uL of cell suspension seeded into each well of 384-well clear bottom plates. The assay plates were incubated in a humidified, 37° C., 6% CO2 atmosphere for 24 hours. Serially diluted SF-1 antagonists, cycloheximide or vehicle (DMSO) were then applied to the R2C cells and incubated in a humidified, 37° C., 6% CO2 atmosphere for two days. EdU (Invitrogen), at a final concentration of 5 μM, was added to the cells and incubated for an additional 16 hours, after which cells were fixed with 10% formalin.
Cells were then washed and permeabilized in 0.5% TritonX-100/PBS solution at RT for 1 hour. EdU incorporation was detected by labeling EdU with 6-FAM azide (Lumiprobe) using a copper (I)-catalyzed Click reaction between an azide and alkyne. The reaction mixture consists of 5 mM ascorbic acid, 1 mM CuSO4, 1 μM 6-FAM azide dissolved in PBS buffer. […] For data normalization, the average fluorescence of DMSO wells was defined as 100%, and average fluorescence of 10 μM cycloheximide wells was defined as 0%. Curve fitting and EC50 determination were performed using the variable slope sigmoidal dose-response analysis.
R2C cells were routinely cultured in R2C culture medium. To assay SF-1 antagonist inhibitory activity, R2C cells were resuspended in the R2C plating medium and plated into a 384 well-clear bottom black plate at 20,000 cells/50 μL/well. […] 10 μL EdU plating solution were then dispensed into each well of assay plate incubated at 37° C., 6% CO2 for two days.
R2C proliferation is measured by detecting the fluorescent labelled EdU. The R2C assay plates were fixed by dispense 60 μL of 10% formalin into each well, and the plates were incubated at room temperature for 1 hour on an orbital shaker. The plates were washed with 80 μL of PBS three times, and cells were permeabilized by treating with 100 μL of PBS-0.5% TritonX-100 at RT for 1 hour on an orbital shaker. The plates were washed with 80 μL of PBS three times, and after the last wash, 25 μL of PBS was dispensed into each well. 25 μL of 2× mounting mix solution was then added into each well of fixed cells, and the plates were incubated at RT for 30 min in the dark on an orbital shaker. The cells were washed with 80 μL of PBS, three times, and after the last wash, 25 μL of PBS was dispensed into each well. […] The cells were washed with 80 μL of PBS, three times, and after the last wash, 50 μL of PBS was dispensed into each well. Assay plates were sealed with aluminum foil, and fluorescence was measured using a Envision microplate reader.
The % of control for the proliferation activity was calculated according to the following equation: % of control=100×(A−C)/(B−C) Equation • A: fluorescence count in the test article-treated R2C cells • B: mean fluorescence count in the vehicle-treated R2C cells • C: mean fluorescence count in the 10 μM cycloheximide-treated R2C cells

[2] = target: T1, human SF-1 (Homo sapiens, UniProt Q13285); assay: SF-1 Luc assay (Gal4DBD-SF-1LBD luciferase reporter in transfected CHO-K1 cells); type: cell-based; conditions: CHO-K1 cells transfected with GAL4-SF-1 plasmid, 40 hours incubation; read-out: hSF-1-Luc: EC50
T1 construct: expressed in transfected cells; host or cells: CHO-K1 cells (Chinese hamster ovary), transient cotransfection with pG5luc
Source text: BamHI and XbaI sites introduced by the primers […] (forward) and […] (reverse) were used for subcloning the amplicon into pFA-CMV.
Cells were routinely cultured by splitting them from 1:10 to 1:20. […] Four hours after transfection, cells were trypsinized and suspended to a concentration of 1.6×10^5 cells/ml in supplemented Ham's F-12 media.
Assays: The collected cells were resuspended in the culture medium and plated into a 384 well-white plate (Corning Life Sciences, Acton, MA) at 8,000 cells/50 μL/well.
Measurement of SF-1 Transcriptional Activity: SF-1 transcriptional activity was detected as the intracellular Luc activity using SteadyLite Plus HTS Reporter Gene Assay System. After the measurement of the cell viability, the culture media in the 384 well-plate were completely removed. Then, 30 μL of the Luc substrate solution was added into each well and incubated for 10 min at room temperature. After the incubation, luminescence of each well was measured by a microplate reader.
Calculation of the SF-1 Transcriptional Activity (% of Control): The % of control for the transcriptional activity was calculated according to the following equation: % of control=A/B×100 Equation • A: luminescence count in the test article-treated CHO cells transfected with GAL4-SF-1 plasmid • B: mean luminescence count in the vehicle-treated CHO cells transfected with GAL4-SF-1 plasmid

T1 sequence (Q13285 198-461 limits assumed): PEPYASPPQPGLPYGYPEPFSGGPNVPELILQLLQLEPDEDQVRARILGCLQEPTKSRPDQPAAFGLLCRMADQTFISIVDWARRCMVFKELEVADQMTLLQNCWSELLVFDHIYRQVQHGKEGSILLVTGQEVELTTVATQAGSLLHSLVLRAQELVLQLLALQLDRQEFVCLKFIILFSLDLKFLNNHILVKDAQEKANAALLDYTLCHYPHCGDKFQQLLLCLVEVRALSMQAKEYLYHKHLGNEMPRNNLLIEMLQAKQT

SMILES | EC50 [1] [µM] | EC50 [2] [µM]
CCn1nc(Nc2ccc(C(F)(F)F)cc2)c2ncn(CC(=O)N[C@H]3CC[C@H](OCC(C)(C)O)CC3)c(=O)c21 [Compound 84, 2-(1-ethyl-7-oxo-3-((4-(trifluoromethyl)phenyl)amino)-1,7-dihydro-6H-pyrazolo[4,3-d]pyrimidin-6-yl)-N-((1r,4r)-4-(2-hydroxy-2-methylpropoxy)cyclohexyl)acetamide] | < 0.2 | < 0.2
CC(C)(O)CO[C@H]1CC[C@H](NC(=O)Cn2cnc3c(Nc4ccc(C(F)(F)F)cc4)nn(CC(F)(F)F)c3c2=O)CC1 [Compound 92, N-((1r,4r)-4-(2-hydroxy-2-methylpropoxy)cyclohexyl)-2-(7-oxo-1-(2,2,2-trifluoroethyl)-3-((4-(trifluoromethyl)phenyl)amino)-1,7-dihydro-6H-pyrazolo[4,3-d]pyrimidin-6-yl)acetamide] | 0.2 to 1 | 0.2 to 1
COc1ccc(NC(=O)Cn2cnc3c(Nc4ccc(C(F)(F)F)cc4)nn(C(C)C)c3c2=O)cc1F [Compound 98, N-(3-fluoro-4-methoxyphenyl)-2-(1-isopropyl-7-oxo-3-((4-(trifluoromethyl)phenyl)amino)-1,7-dihydro-6H-pyrazolo[4,3-d]pyrimidin-6-yl)acetamide] | 1 to 10 | 0.2 to 1

Reference: patent US12617799B2, “Pyrazolopyrimidinone compounds” (Orphagen Pharmaceuticals, Inc., priority 2021, dated 2026)
